Laboratory results: patent US4888287A, “Rapid differentiation of fungi from bacteria using polyene antibiotics” (Eastman Kodak Company, priority 1986, dated 1989)

Test: Reduction potential E1/2 of the quinone nucleus of RIND compounds (Table I)
Format: physicochemical
Conditions: quinone nucleus with H in place of the releasing group
From the text: Examples of such nuclei are presented below.
Preferably, the E1/2 is from about +100 mV to about +400 mV as measured in water, or from about -650 to about -300 mV as measured in acetonitrile. […] Further details of measuring the E1/2 are described below prior to Table I. The desired E1/2 is achieved by appropriate electron withdrawing groups on the CAR-nucleus, or by a strained fused ring attached to the nucleus or by a combination of both.
Representative RIND compounds are listed in Table I below in reference to the following structure: [drawing 3] The E1/2 values in Table I were determined for the quinone nucleus of this structure having a hydrogen atom in place of [drawing 4] The E1/2 values (where available) were measured in an aqueous emulsion of the quinone dissolved in N,N-dimethylformamide, a nonionic surfactant (for example, TRITON X-100) and sodium phosphate buffer (pH 7). A standard calomel electrode was used as a standard. Some E1/2 values (denoted by *) were measured in acetonitrile using a saturated calomel electrode as a standard. E1/2 values not available are denoted by "NA".

[1] = aqueous emulsion, DMF, nonionic surfactant, phosphate buffer pH 7, standard calomel electrode
[2] = denoted *: measured in acetonitrile, saturated calomel electrode

Row | SMILES | E1/2 [1] | E1/2 [2] [mV]
1 | CN(CC1=C(c2ccc(C#N)cc2)C(=O)C2=C(CCCC2)C1=O)C(=O)Oc1ccc(N=Nc2ccc([N+](=O)[O-])cc2S(C)(=O)=O)c2c(NS(=O)(=O)c3cccc(S(N)(=O)=O)c3)cccc12 [IX] | +220 mV | –
2 | CN(CC1=C(c2ccc([N+](=O)[O-])cc2)C(=O)C2=C(CCCC2)C1=O)C(=O)Oc1ccc2c3c(cccc13)C(=O)C=C2 [XXXIII] | +236 mV | –
3 | CN(CC1=C(c2cc(Cl)ccc2Cl)C(=O)C2=C(CCC2)C1=O)C(=O)Oc1ccc(N=Nc2ccc([N+](=O)[O-])cc2S(C)(=O)=O)c2c(NS(=O)(=O)c3cccc(S(N)(=O)=O)c3)cccc12 [XXIV] | +236 mV | –
4 | CC1CCC(C)C2=C1C(=O)C(CN(C)C(=O)Oc1ccc(N=Nc3ccc([N+](=O)[O-])cc3S(C)(=O)=O)c3c(NS(=O)(=O)c4cccc(S(N)(=O)=O)c4)cccc13)=C(c1ccccc1)C2=O (stereo not shown) [XXVII] | +122 mV | –
5 | CN(CC1=C(c2cc(Cl)ccc2Cl)C(=O)C2=C(CCC2)C1=O)C(=O)Oc1ccc2c3c(cccc13)C(=O)C=C2 [XXXI] | +236 mV | –
6 | CC(C)NS(=O)(=O)c1ccc(C2=C(CN(C)C(=O)Oc3ccc(N=Nc4ccc([N+](=O)[O-])cc4S(C)(=O)=O)c4c(NS(=O)(=O)c5cccc(S(N)(=O)=O)c5)cccc34)C(=O)C3=C(CCCC3)C2=O)cc1 [VIII] | +212 mV | –
7 | CN(CC1=C(c2ccccc2)C(=O)C2=C(CCCC2)C1=O)C(=O)Oc1ccc(N=Nc2ccc([N+](=O)[O-])cc2S(C)(=O)=O)c2c(NS(=O)(=O)c3cccc(S(N)(=O)=O)c3)cccc12 [VI] | +180 mV | –
8 | CCCCCCCCCCNS(=O)(=O)c1ccc(C(C)C2=C(CN(C)C(=O)Oc3ccc(N=Nc4ccc([N+](=O)[O-])cc4S(C)(=O)=O)c4c(NS(=O)(=O)c5cccc(S(N)(=O)=O)c5)cccc34)C(=O)C(C(C)c3ccc(S(=O)(=O)NCCCCCCCCCC)cc3)=C(CN(C)C(=O)Oc3ccc(N=Nc4ccc([N+](=O)[O-])cc4S(C)(=O)=O)c4c(NS(=O)(=O)c5cccc(S(N)(=O)=O)c5)cccc34)C2=O)cc1 (stereo not shown) [I] | – | -528
9 | CN(CC1=CC(=O)C2=C(CCCC2)C1=O)C(=O)Oc1ccc(N=Nc2ccc([N+](=O)[O-])cc2S(C)(=O)=O)c2c(NS(=O)(=O)c3cccc(S(N)(=O)=O)c3)cccc12 [XV] | +213 mV | –
10 | Cc1cc(=O)oc2cc(OC(=O)N(C)CC3=C(c4cccc([N+](=O)[O-])c4)C(=O)C4=C(CCCC4)C3=O)ccc12 [XXIII] | +214 mV | –
11 | CCCCCCCCCCCCN(CC1=C(c2ccc(C#N)cc2)C(=O)C2=C(CCCC2)C1=O)C(=O)Oc1ccc(N=Nc2ccc([N+](=O)[O-])cc2S(C)(=O)=O)c2c(NS(=O)(=O)c3cccc(S(N)(=O)=O)c3)cccc12 [XVI] | +220 mV | –
12 | CC(C1=C(CN(C)C(=O)Oc2ccc(N=Nc3ccc([N+](=O)[O-])cc3S(C)(=O)=O)c3c(NS(=O)(=O)c4cccc(S(N)(=O)=O)c4)cccc23)C(=O)C(C(C)c2ccc([N+](=O)[O-])cc2)=C(CN(C)C(=O)Oc2ccc(N=Nc3ccc([N+](=O)[O-])cc3S(C)(=O)=O)c3c(NS(=O)(=O)c4cccc(S(N)(=O)=O)c4)cccc23)C1=O)c1ccc([N+](=O)[O-])cc1 (stereo not shown) [II] | +236 mV | –
13 | COc1cccc(C2=C(CN(C)C(=O)Oc3ccc(N=Nc4ccc([N+](=O)[O-])cc4S(C)(=O)=O)c4c(NS(=O)(=O)c5cccc(S(N)(=O)=O)c5)cccc34)C(=O)C3=C(CCCC3)C2=O)c1 [X] | +154 mV | –
14 | CN(CC1=C(c2ccccc2)C(=O)C2=C(CCC2)C1=O)C(=O)Oc1ccc(N=Nc2ccc([N+](=O)[O-])cc2S(C)(=O)=O)c2c(NS(=O)(=O)c3cccc(S(N)(=O)=O)c3)cccc12 [XX] | +222 mV | –
15 | CCCCCCCCCCNS(=O)(=O)c1ccc(C(C)C2=C(CN(C)C(=O)Oc3ccc(N=Nc4cccc(S(N)(=O)=O)c4)c4c(NS(C)(=O)=O)cccc34)C(=O)C(C(C)c3ccc(S(=O)(=O)NCCCCCCCCCC)cc3)=C(CN(C)C(=O)Oc3ccc(N=Nc4cccc(S(N)(=O)=O)c4)c4c(NS(C)(=O)=O)cccc34)C2=O)cc1 (stereo not shown) [XXI] | – | -528
16 | CN(CC1=C(c2ccc(C#N)cc2)C(=O)C2=C(CCCC2)C1=O)C(=O)Oc1ccc2c3c(cccc13)C(=O)C=C2 [XXIX] | +220 mV | –

Row | SMILES | E1/2 [1] | E1/2 [2] [mV]
17 | CN(CC1=C(c2cccc([N+](=O)[O-])c2)C(=O)C2=C(CCCC2)C1=O)C(=O)Oc1ccc2c3c(cccc13)C(=O)C=C2 [XXXII] | +214 mV | –
18 | CN(CC1=C(c2ccc(C#N)cc2)C(=O)C2=C(CC=CC2)C1=O)C(=O)Oc1ccc(N=Nc2ccc([N+](=O)[O-])cc2S(C)(=O)=O)c2c(NS(=O)(=O)c3cccc(S(N)(=O)=O)c3)cccc12 [XVII] | +240 mV | –
19 | CN(CC1=C(c2ccccc2)C(=O)C(CN(C)C(=O)Oc2ccc(N=Nc3ccc([N+](=O)[O-])cc3S(C)(=O)=O)c3c(NS(=O)(=O)c4cccc(S(N)(=O)=O)c4)cccc23)=C(c2ccccc2)C1=O)C(=O)Oc1ccc(N=Nc2ccc([N+](=O)[O-])cc2S(C)(=O)=O)c2c(NS(=O)(=O)c3cccc(S(N)(=O)=O)c3)cccc12 [IV] | – | -460
20 | CN(CC1=C(c2ccc(C(=O)O)cc2)C(=O)C2=C(CCCC2)C1=O)C(=O)Oc1ccc2c3c(cccc13)C(=O)C=C2 [RIND Compound XXXV] | +220 mV | –
21 | CN(CC1=C(c2ccc(Br)cc2)C(=O)C2=C(CCCC2)C1=O)C(=O)Oc1ccc(N=Nc2ccc([N+](=O)[O-])cc2S(C)(=O)=O)c2c(NS(=O)(=O)c3cccc(S(N)(=O)=O)c3)cccc12 [XIV] | +192 mV | –
22 | CCCCCCCCCCNS(=O)(=O)c1ccc(C(C)C2=C(CN(C)C(=O)Oc3ccc4c(C)cc(=O)oc4c3)C(=O)C(C(C)c3ccc(S(=O)(=O)NCCCCCCCCCC)cc3)=C(CN(C)C(=O)Oc3ccc4c(C)cc(=O)oc4c3)C2=O)cc1 (stereo not shown) [XXII] | – | -528
23 | CN(CC1=C(c2ccc([N+](=O)[O-])cc2)C(=O)C2=C(CCCC2)C1=O)C(=O)Oc1ccc(N=Nc2ccc([N+](=O)[O-])cc2S(C)(=O)=O)c2c(NS(=O)(=O)c3cccc(S(N)(=O)=O)c3)cccc12 [VII] | +236 mV | –
24 | CN(CC1=C(c2ccccc2)C(=O)C2=C(C1=O)C1C=CC2C1)C(=O)Oc1ccc(N=Nc2ccc([N+](=O)[O-])cc2S(C)(=O)=O)c2c(NS(=O)(=O)c3cccc(S(N)(=O)=O)c3)cccc12 (stereo not shown) [XIX] | +242 mV | –
25 | CN(CC1=C(c2cc([N+](=O)[O-])cc([N+](=O)[O-])c2)C(=O)C2=C(CCCC2)C1=O)C(=O)Oc1ccc(N=Nc2ccc([N+](=O)[O-])cc2S(C)(=O)=O)c2c(NS(=O)(=O)c3cccc(S(N)(=O)=O)c3)cccc12 [XI] | +186 mV | –
26 | CC(=O)c1ccc(C2=C(CN(C)C(=O)Oc3ccc(N=Nc4ccc([N+](=O)[O-])cc4S(C)(=O)=O)c4c(NS(=O)(=O)c5cccc(S(N)(=O)=O)c5)cccc34)C(=O)C3=C(CCCC3)C2=O)cc1 [XIII] | +212 mV | –
27 | CC1=C(C)C(=O)C(c2ccccc2)=C(CN(C)C(=O)Oc2ccc(N=Nc3ccc([N+](=O)[O-])cc3S(C)(=O)=O)c3c(NS(=O)(=O)c4cccc(S(N)(=O)=O)c4)cccc23)C1=O [XXXVI] | +144 mV | –
28 | CN(CC1=C(c2ccccc2)C(=O)C2=C(CCC2)C1=O)C(=O)Oc1ccc2c3c(cccc13)C(=O)C=C2 [XXX] | +222 mV | –
29 | CCCCCCCCCCCCC1CC2=C(C1)C(=O)C(c1ccccc1)=C(CN(C)C(=O)Oc1ccc(N=Nc3ccc([N+](=O)[O-])cc3S(C)(=O)=O)c3c(NS(=O)(=O)c4cccc(S(N)(=O)=O)c4)cccc13)C2=O (stereo not shown) [XXV] | +222 mV | –
30 | CCCCCCCCCCC(=O)c1ccc(C2=C(CN(C)C(=O)Oc3ccc(N=Nc4ccc([N+](=O)[O-])cc4S(C)(=O)=O)c4c(NS(=O)(=O)c5cccc(S(N)(=O)=O)c5)cccc34)C(=O)C3=C(CCCC3)C2=O)cc1 [XII] | +206 mV | –
31 | CN(CC1=C(c2cccc([N+](=O)[O-])c2)C(=O)C2=C(CCCC2)C1=O)C(=O)Oc1ccc(N=Nc2ccc([N+](=O)[O-])cc2S(C)(=O)=O)c2c(NS(=O)(=O)c3cccc(S(N)(=O)=O)c3)cccc12 [V] | +214 mV | –
